Among the test systems are COLO 205 colon; HCT-116 colon; HT29 colon; KM12 colon; LOX IMVI melanoma; OVCAR-8 ovarian; RPMI-8226 leukemia; SF-268 CNS; SK-OV-3 ovarian; SW-620 colon.
Assay in all cases: NCI tumour cell line growth inhibition, 48 h

SMILES strings stand for the structures.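 Where inhibition never reached the appropriate level, the endpoint shown equals the highest concentration tested. Otherwise, values were interpolated linearly from a five-concentration, 48-hour dose response in 96-well plates. Here, GI50 denotes the concentration required for 50% inhibition of growth. TGI: total growth inhibition.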 Where only a bound is given, the exact number is not on record here.

Take `N#C[C@@H]1C(n2ccc(N)nc2=O)O[C@H](CO)[C@H]1O` (stereo not given in full): the GI50 with COLO 205 colon is 8.79 µM; with HCT-116 colon, 2.66 µM; in the assay with HT29 colon it was above 85 µM; with KM12 colon, above 100 µM; with LOX IMVI melanoma, 11.4 µM; in the assay on OVCAR-8 ovarian it was 6 µM. For the same compound, the GI50 was above 100 µM in the assay with RPMI-8226 leukemia, 22.3 µM in the assay with SF-268 CNS, 39.6 µM with SK-OV-3 ovarian and 53.6 µM with SW-620 colon. For the same compound, the TGI in the assay with COLO 205 colon, with HCT-116 colon, in the assay with HT29 colon, with KM12 colon, in the assay on LOX IMVI melanoma and with OVCAR-8 ovarian was above 100 µM in each case. Also, the TGI in the assay with RPMI-8226 leukemia, with SF-268 CNS, in the assay on SK-OV-3 ovarian and in the assay with SW-620 colon was above 100 µM in each case.
For `C=C(C=O)CCCC(C)[C@@H]1CCC23CC12CCC1[C@@]2(C)CCC(OC(C)=O)C(C)(C)C2CC(OC2OC(COC(C)=O)C(O)C(O)C2O)[C@]13C` (stereo not given in full), the TGI with COLO 205 colon was found to be 14.4 µM; in the assay on HCT-116 colon it was 1.43 µM; in the assay on HT29 colon, 11.9 µM; in the assay on KM12 colon, 9.53 µM; in the assay with LOX IMVI melanoma, 1.43 µM; in the assay with OVCAR-8 ovarian, 11.1 µM. In addition, the TGI in the assay with RPMI-8226 leukemia was determined as 3.01 µM; in the assay on SF-268 CNS it was 12.3 µM; with SK-OV-3 ovarian it was 12 µM; in the assay on SW-620 colon, 1.44 µM.
For `C=C1C(=O)O[C@H]2C[C@@]3(C)[C@H](O)CCC(=C)[C@@H]3[C@@H](OC(C)=O)[C@H]12`, the TGI in the assay on COLO 205 colon came to 7.06 µM; with HCT-116 colon it was 22.2 µM; in the assay on HT29 colon it was 25.9 µM; in the assay on KM12 colon it was 36 µM; in the assay on LOX IMVI melanoma, 19.7 µM; with OVCAR-8 ovarian it was 50.4 µM. For the same compound, the TGI is 68.7 µM with RPMI-8226 leukemia, above 52.2 µM in the assay with SF-268 CNS, above 83.6 µM in the assay on SK-OV-3 ovarian and above 100 µM in the assay on SW-620 colon.
As for `COC(=O)C1=C(C(=O)OC)SC(=C(Cl)C(=S)Sc2ccccc2N)S1`, the GI50 is 34.8 µM in the assay with COLO 205 colon; 13.2 µM in the assay on HCT-116 colon; 93.9 µM in the assay on HT29 colon; above 100 µM in the assay on KM12 colon; 17.8 µM with LOX IMVI melanoma; 46.6 µM in the assay with OVCAR-8 ovarian. Also, the GI50 is 51.8 µM in the assay on RPMI-8226 leukemia, 29.1 µM with SF-268 CNS, 41.3 µM in the assay with SK-OV-3 ovarian and 55.4 µM with SW-620 colon. In addition, the TGI is above 100 µM in the assay on COLO 205 colon; 27.7 µM in the assay with HCT-116 colon; above 100 µM in the assay on HT29 colon; above 100 µM with KM12 colon; 40.3 µM with LOX IMVI melanoma; above 100 µM with OVCAR-8 ovarian. For the same compound, the TGI with RPMI-8226 leukemia is above 100 µM; in the assay with SF-268 CNS, 68.7 µM; with SK-OV-3 ovarian, above 100 µM; in the assay with SW-620 colon, above 100 µM.
On to `CC(C)(C)NC(=O)[C@H]1C[C@H]2CCCC[C@H]2CN1C[C@@H](O)[C@H](Cc1ccccc1)NC(=O)[C@H](CC(N)=O)NC(=O)c1ccc2ccccc2n1`, for which the GI50 is 10.5 µM in the assay on COLO 205 colon; 17 µM in the assay with HCT-116 colon; 9.38 µM in the assay on HT29 colon; 14 µM in the assay with KM12 colon; 14.6 µM with LOX IMVI melanoma; 23 µM in the assay on OVCAR-8 ovarian. The GI50 in the assay with RPMI-8226 leukemia is 3.5 µM; with SF-268 CNS, 13 µM; in the assay on SK-OV-3 ovarian it was 18.9 µM; in the assay with SW-620 colon, 20.3 µM. The TGI in the assay on COLO 205 colon was 29.8 µM; in the assay with HCT-116 colon it was above 47.1 µM; with HT29 colon it was 28.2 µM; with KM12 colon it was 34.8 µM; in the assay on LOX IMVI melanoma it was 32.1 µM; with OVCAR-8 ovarian it was 62.4 µM. Also, the TGI came out at 14.8 µM with RPMI-8226 leukemia, 30.1 µM in the assay on SF-268 CNS, 42.9 µM with SK-OV-3 ovarian and 48.8 µM with SW-620 colon.
Turning to `C[N+]1(C)C/C(=C\c2ccncc2)C(=O)/C(=C/c2ccncc2)C1`, the TGI with COLO 205 colon, in the assay on HCT-116 colon, in the assay with HT29 colon, with KM12 colon, in the assay on LOX IMVI melanoma and in the assay on OVCAR-8 ovarian was above 100 µM each time. For the same compound, the TGI in the assay on RPMI-8226 leukemia was above 100 µM; in the assay with SF-268 CNS it was 84.7 µM; in the assay with SK-OV-3 ovarian it was above 100 µM; in the assay on SW-620 colon, above 100 µM.
For the compound `CC(=O)Nc1ccc(S(=O)(=O)NNC(=O)c2cccnc2Nc2ccc(Cl)cc2)cc1`, the GI50 is 10.3 µM in the assay with COLO 205 colon; 7.22 µM in the assay on HCT-116 colon; 4 µM in the assay on HT29 colon; 4.19 µM with KM12 colon; 24 µM with LOX IMVI melanoma; 36.2 µM in the assay with OVCAR-8 ovarian. Further, the GI50 is 28.6 µM in the assay on RPMI-8226 leukemia, 22 µM with SF-268 CNS, 57.5 µM with SK-OV-3 ovarian and 7.64 µM with SW-620 colon. The TGI in the assay on COLO 205 colon is 57 µM; in the assay on HCT-116 colon, above 100 µM; in the assay with HT29 colon, above 100 µM; in the assay on KM12 colon, above 100 µM; with LOX IMVI melanoma, above 100 µM; in the assay with OVCAR-8 ovarian it was above 100 µM. In addition, the TGI with RPMI-8226 leukemia, with SF-268 CNS, in the assay on SK-OV-3 ovarian and with SW-620 colon was above 100 µM throughout.
